Legend:
[1] = system: PGC-1α; test: PGC-1α levels in SH-SY5Y cells by immunoblot; format: cell-based; conditions: SH-SY5Y cells
Method: (§1) The 9 compounds that activate the PGC-1α promoter in the presence of PARIS were evaluated to determine which compounds induce PGC-1α levels in SH-SY5Y cells (FIGS. 2A and 2B). […] The mRNA level of PGC-1α target genes including copper/zinc superoxide dismutase (SOD1), manganese SOD (SOD2), glutathione peroxidase (GPx1), catalase (CAT), nuclear respiratory factor-1 (NRF-1), mitochondrial transcription factor A (TFAM), mitochondrial uncoupling proteins (UCP2 and UCP3), and the oxidative phosphorylation regulators, ATP5b, cytochrome C (CytC) and cytochrome C oxidase (COX II and IV) were determined by real-time quantitative RT-PCR (qRT-PCR) (FIG. 2C).
(§2) Geraniol or geranylgeraniol have no effect on PGC-1α levels (FIG. 3H).

[2] = system: PGC-1α target genes; test: mRNA of PGC-1α target genes in SH-SY5Y cells by real-time qRT-PCR; format: cell-based
Method: as §1

[3] = system: PGC-1α; test: Parkin knockdown (lentiviral shRNA-parkin) SH-SY5Y cells; format: cell-based
Method: Knockdown of parkin leads to a 2.7 fold increase in the level of PARIS and a 65% decrease of PGC-1α (FIGS. 2D and 2E). […] The mRNA levels of PGC-1α and its target genes were assessed after knocking down parkin by real-time qRT-PCR.

[4] = system: PGC-1α; test: PGC-1α level in brain regions of farnesol-fed mice; format: in vivo; conditions: farnesol-fed mice versus normal mouse chow
Method: (§3) Farnesol is a natural organic compound in both plants and animals. Phosphate derivatives of farnesol are the building blocks of cholesterol in mammalian cells. […] The level of PGC-1α was measured from different brain regions in farnesol-fed mice. PGC-1α levels increase 2.7-fold in the olfactory bulb (OB), 1.6-fold in hippocampus (HIP), and 1.7-fold in substantia nigra (SN) as compared to that of mice on normal mouse chow (FIGS. 2H and 2I). […] In addition, mRNA levels of PGC-1α and a variety of PGC-1α's target genes in the STR, HIP, and SN of farnesol-fed mice were measured.

[5] = system: PGC-1α and PGC-1α's target genes; test: mRNA of PGC-1α and target genes in STR, HIP and SN of farnesol-fed mice; format: in vivo
Method: as §3

[6] = system: PARIS; test: PARIS farnesylation in SH-SY5Y cells transfected with Flag-tagged PARIS (immunoprecipitation); format: cell-based
Method: as §2
(§4) To confirm that farnesylation of PARIS requires FTase, siRNA-FTase α knockdown or FTI-277 inhibition of FTase in the setting of PARIS overexpression was performed (FIG. 4C). […] To ascertain whether the farnesylation of PARIS affects the DNA binding activity of PARIS on the IRS motif of the PGC-1α promoter, a chromatin immunoprecipitation assay (ChIP) was performed from SH-SY5Y transfected with GFP-tagged PARIS WT or GFP-tagged PARIS C631S. […] To examine the possibility that the farnesylation of PARIS alters its subcellular distribution, subcellular fractionation was used to monitor the levels of PARIS in cytosolic, membrane, soluble nuclear, and chromatin-bound nuclear fractions by immunoblot analysis (FIG. 4F).

[7] = system: PARIS; test: Subcellular fractionation of PARIS by immunoblot; format: cell-based
Method: as §4

[8] = system: Tg-PARIS mice; test: Tet inducible conditional PARIS transgenic mice (Tg-PARIS); format: in vivo
Source text: A C-terminal FLAG tagged human PARIS under the control of a tetracycline responsive regulator (TetP-PARIS-Flag) was used to generate tetracycline responsive transgenic mice (Figure S5A). […] Three of the highest copy number male founder mice were crossed with the CamKIIα-tTA transgenic mice to achieve transgene expression throughout the mouse forebrain (Mayford et al., 1996). […] Thus, dams were maintained on doxycycline to suppress PARIS expression and pups were maintained on doxycycline diet for three weeks after birth. […] Dopamine neuronal number was assessed at 6 weeks of age when the mice were moribund by unbiased stereology counting of TH and Nissl positive neurons.
A second cohort of Tg-PARIS mice were maintained on […] prior to doxycycline withdrawal. Two groups of non-transgenic control (CamKIIα-tTA or TetP-PARIS) mice were subjected to the same dietary regimen.
To generate tet-off conditional PARIS transgenic mice, linearized transgenic constructs (NotI digestion, 8 kbp) were microinjected into the embryos and the embryos were transferred into B6D2F1 pseudo-pregnant female mice (Transgenic Animal Core of National Cancer Institute). The three high copy founders (line #121, 158, 179) were mated with C57/BL6 mice for two to three generations to establish the transgenic lines. PARIS induction in conditional transgenic mice was suppressed by feeding the mice with doxycycline-containing food (doxycycline Diet-Sterile, 200 mg per kg doxycycline, Bio-Serv).

[9] = biological target: T1, PPARα (Homo sapiens, UniProt Q07869); conditions: cited from earlier work
T1 sequence (Q07869 1-468): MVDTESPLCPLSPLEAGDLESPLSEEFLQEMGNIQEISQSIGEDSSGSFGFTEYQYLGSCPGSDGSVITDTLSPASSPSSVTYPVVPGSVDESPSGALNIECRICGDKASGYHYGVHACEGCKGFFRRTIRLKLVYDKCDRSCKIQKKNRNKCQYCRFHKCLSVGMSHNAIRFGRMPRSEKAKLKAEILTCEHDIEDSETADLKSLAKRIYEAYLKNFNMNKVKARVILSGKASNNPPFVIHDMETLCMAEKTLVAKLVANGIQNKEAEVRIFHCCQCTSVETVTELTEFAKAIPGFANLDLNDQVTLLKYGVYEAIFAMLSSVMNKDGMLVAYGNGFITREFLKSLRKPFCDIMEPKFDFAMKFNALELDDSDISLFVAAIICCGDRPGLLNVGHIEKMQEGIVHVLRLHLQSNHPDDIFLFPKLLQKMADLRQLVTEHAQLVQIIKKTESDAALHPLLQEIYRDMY

[10] = dietary farnesol in rats; cited from earlier work
[11] = farnesol fed versus normal chow fed mice
[12] = SH-SY5Y, Flag-tagged PARIS, farnesol treatment 48 hours

SMILES: CC(C)=CCC/C(C)=C/CC/C(C)=C/CO [farnesol, (2E,6E)-3,7,11-trimethyldodeca-2,6,10-trien-1-ol]
- PGC-1α level by immunoblot analysis [1]: significantly increased
- PGC-1α, SOD1, and ATP5B mRNA levels [2]: increased
- mRNA level of NRF-1 [2]: robustly increased
- level of PGC-1α [3]: restores the level of PGC-1α
- level of parkin and PARIS [3]: without affecting the level of parkin and PARIS
- mRNA levels of SOD2, TFAM, ATP5B, CYTC, and COX II ([3]; qRT-PCR): significantly increased
- reduction of mRNA of PGC-1α and NRF-1 ([3]; qRT-PCR): rescued
- PGC-1α level increase, hippocampus (HIP) [4]: 1.6 fold
- PGC-1α level increase, olfactory bulb (OB) [4]: 2.7 fold
- PGC-1α level increase, substantia nigra (SN) [4]: 1.7 fold
- PGC-1α levels in cerebellum (CBM), brain stem (BS), striatum (STR), frontal cortex (CTX) [4]: No significant change
- mRNA levels of SOD2, TFAM, UCP2, and CYTC ([5]; farnesol fed mice, SN, HIP, STR): exclusively increased in SN, but not in the HIP and STR
- mRNA level of PGC-1α in HIP, SN and STR [5, 11]: significantly upregulated in the HIP and SN, but not in the STR
- mRNA levels of NRF-1, COX II, and COX IV [5, 11]: upregulated in both HIP and SN
- restoration of PGC-1α levels with PARIS C631S mutant ([6]; PARIS C631S mutant): no effect
- farnesylation of FLAG-PARIS C631S mutant ([6]; PARIS C631S mutant, in the presence of farnesol): no farnesylation
- PGC-1α level with PARIS WT ([6]; PARIS WT): upregulation of PGC-1α
- farnesylation of FLAG-PARIS WT ([6]; PARIS WT, farnesol treatment): farnesylation is increased
- PARIS farnesylation [6, 12]: increases PARIS farnesylation in a dose-dependent manner
- PGC-1α accompanying PARIS farnesylation [6, 12]: increase in PGC-1α
- distribution of PARIS in cytoplasmic, membrane, and soluble nuclear fractions [7]: no change
- level of chromatin-bound PARIS ([7]; PARIS WT or C631S): abolished the level of chromatin-bound PARIS WT but not PARIS C631S
- dopaminergic neuronal PGC-1α immunoreactivity ([8]; Tg-PARIS SN, co-immunostaining): increased dopaminergic neuronal PGC-1α immunoreactivity
- Pole Test behavior ([8]; Tg-PARIS, farnesol diet): complete behavioral rescue
- farnesylation of PARIS (FLAG immunoprecipitation, farnesyl antibody) ([8]; Tg-PARIS, farnesol diet): enhanced farnesylation of PARIS
- premature lethality due to PARIS overexpression ([8]; Tg-PARIS, farnesol diet): delays the premature lethality
- reduction in PGC-1α and NRF-1 levels ([8]; Tg-PARIS, farnesol diet): blocked
- loss of dopamine neurons in the SN (TH and Nissl stereology) ([8]; Tg-PARIS, farnesol diet from 3 days prior to doxycycline withdrawal): completely prevents the loss of dopamine neurons
- mRNA level of PGC-1α and NRF-1 in the SN ([8]; farnesol-fed versus normal chow-fed mice): significantly upregulated
- PGC-1α and NRF-1 levels in control mice ([8]; non-transgenic control mice, farnesol diet): increases PGC-1α and NRF-1 levels
- activation of PPARα in vitro [9]: capable of activating
- level of serum triglycerides, cholesterol [10]: lowers

— patent US20190117586A1, “METHODS OF PREVENTING OR TREATING PARKINSON'S DISEASE BY THE FARNESYLATION OF PARIS” (The Johns Hopkins University, priority 2016, published 2019)
